According to patent US6358885B1, “Substituted phenylheterocyclic herbicides” (Mississippi State University, priority 1992, dated 2002):

Columns and labels:
[1] = test system: cheatgrass; assay: Test B preemergence/postemergence greenhouse plant response rating 0 to 10; type: in vivo, Bromus secalinus; conditions: 0 to 10 scale
How it was run: (§1)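 Planted seeds are treated preemergence with compound dissolved in a non-phytotoxic solvent, while postemergence applications go onto plants of two to eighteen cm. Plants stay in the greenhouse twelve to sixteen days and are then rated visually relative to controls.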

[2] = test system: sugar beet; assay: Test C preemergence/postemergence greenhouse plant response rating 0 to 100; type: in vivo, Beta vulgaris; conditions: POSTEMERGENCE
How it was run: (§2)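 Compounds in non-phytotoxic solvent went onto sandy loam before emergence (seeded one day earlier) or onto plants at the one-to-four leaf stage. Duck salad was treated via flood water (~2.5 cm, maintained) over silt loam.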

[3] = test system: soybean; assay: as above; type: in vivo, Glycine max; conditions: POSTEMERGENCE
How it was run: as §2

[4] = test system: ryegrass; assay: as above; type: in vivo, Lolium multiflorum; conditions: POSTEMERGENCE
How it was run: as §2

[5] = test system: velvetleaf; assay: Test B preemergence/postemergence greenhouse plant response rating 0 to 10; type: in vivo, Abutilon theophrasti; conditions: 0 to 10 scale
How it was run: as §1

[6] = test system: soybean; assay: as above; type: in vivo, Glycine max; conditions: 0 to 10 scale
How it was run: as §1

[7] = test system: wild buckwheat; assay: Test C preemergence/postemergence greenhouse plant response rating 0 to 100; type: in vivo, Polygonum convolvulus; conditions: POSTEMERGENCE
How it was run: as §2

[8] = test system: lambsquarters; assay: Test B preemergence/postemergence greenhouse plant response rating 0 to 10; type: in vivo, Chenopodium album; conditions: 0 to 10 scale
How it was run: as §1

[9] = test system: giant foxtail; assay: as above; type: in vivo, Setaria faberii; conditions: 0 to 10 scale
How it was run: as §1

[10] = test system: barley; assay: Test C preemergence/postemergence greenhouse plant response rating 0 to 100; type: in vivo, Hordeum vulgare; conditions: POSTEMERGENCE
How it was run: as §2

[11] = test system: purple nutsedge; assay: Test B preemergence/postemergence greenhouse plant response rating 0 to 10; type: in vivo, Cyperus rotundus; conditions: 0 to 10 scale
How it was run: as §1

[12] = test system: blackgrass; assay: as above; type: in vivo, Alopecurus myosuroides; conditions: 0 to 10 scale
How it was run: as §1

[13] = test system: lambsquarters; assay: Test C preemergence/postemergence greenhouse plant response rating 0 to 100; type: in vivo, Chenopodium album; conditions: POSTEMERGENCE
How it was run: as §2

[14] = test system: crabgrass; assay: Test B preemergence/postemergence greenhouse plant response rating 0 to 10; type: in vivo, Digitaria spp.; conditions: 0 to 10 scale
How it was run: as §1

[15] = test system: chickweed; assay: Test C preemergence/postemergence greenhouse plant response rating 0 to 100; type: in vivo, Stellaria media; conditions: POSTEMERGENCE
How it was run: as §2

[16] = test system: rape; assay: Test B preemergence/postemergence greenhouse plant response rating 0 to 10; type: in vivo, Brassica napus; conditions: 0 to 10 scale
How it was run: as §1

[17] = test system: pigweed; assay: Test C preemergence/postemergence greenhouse plant response rating 0 to 100; type: in vivo, Amaranthusretroflexus; conditions: POSTEMERGENCE
How it was run: as §2

[18] = test system: barley; assay: Test B preemergence/postemergence greenhouse plant response rating 0 to 10; type: in vivo, Hordeum vulgare; conditions: 0 to 10 scale
How it was run: as §1

COCN1C(=O)COc2cc(F)c(-c3nn4c(c3Cl)CCCC4)cc21 [Compound 55]
Plant response rating, Cheatgrass ([1]; POSTEMERGENCE, Rate 10 g/ha): 6 | Plant response rating, Cheatgrass ([1]; POSTEMERGENCE, Rate 50 g/ha): 8 | Plant response rating, Cheatgrass ([1]; PREEMERGENCE, Rate 10 g/ha): 1 | Plant response rating, Cheatgrass ([1]; PREEMERGENCE, Rate 50 g/ha): 5 | Plant response rating, Sugar beet ([2]; 62 g/ha, 0 to 100 scale): 100 | Plant response rating (0 to 100), Sugar beet ([2]; Rate 1 g/ha): 100 | Plant response rating (0 to 100), Sugar beet ([2]; Rate 4 g/ha): 100 | Plant response rating (0 to 100), Sugar beet ([2]; Rate 16 g/ha): 100 | Plant response rating, Soybean ([3]; 62 g/ha, 0 to 100 scale): 95 | Plant response rating (0 to 100), Soybean ([3]; Rate 1 g/ha): 40 | Plant response rating (0 to 100), Soybean ([3]; Rate 4 g/ha): 70 | Plant response rating (0 to 100), Soybean ([3]; Rate 16 g/ha): 90 | Plant response rating Ryegrass ([4]; 62 g/ha, 0 to 100 scale): 60 | Plant response rating (0 to 100), Ryegrass ([4]; Rate 1 g/ha): 10 | Plant response rating (0 to 100), Ryegrass ([4]; Rate 4 g/ha): 30 | Plant response rating (0 to 100), Ryegrass ([4]; Rate 16 g/ha): 40 | Plant response rating, Velvetleaf ([5]; POSTEMERGENCE, Rate 10 g/ha): 10 | Plant response rating, Velvetleaf ([5]; POSTEMERGENCE, Rate 50 g/ha): 9 | Plant response rating, Velvetleaf ([5]; PREEMERGENCE, Rate 50 g/ha): 10 | Plant response rating, Soybean ([6]; POSTEMERGENCE, Rate 10 g/ha): 7 | Plant response rating, Soybean ([6]; POSTEMERGENCE, Rate 50 g/ha): 9 | Plant response rating, Soybean ([6]; PREEMERGENCE, Rate 50 g/ha): 0 | Plant response rating, Wild buckwheat ([7]; 62 g/ha, 0 to 100 scale): 100 | Plant response rating (0 to 100), Wild buckwheat ([7]; Rate 1 g/ha): 60 | Plant response rating (0 to 100), Wild buckwheat ([7]; Rate 4 g/ha): 100 | Plant response rating (0 to 100), Wild buckwheat ([7]; Rate 16 g/ha): 100 | Plant response rating, Lambsquarter ([8]; POSTEMERGENCE, Rate 10 g/ha): 10 | Plant response rating, Lambsquarter ([8]; POSTEMERGENCE, Rate 50 g/ha): 10 | Plant response rating, Lambsquarter ([8]; PREEMERGENCE, Rate 50 g/ha): 10 | Plant response rating, Giant foxtail ([9]; POSTEMERGENCE, Rate 10 g/ha): 4 | Plant response rating, Giant foxtail ([9]; POSTEMERGENCE, Rate 50 g/ha): 6 | Plant response rating, Giant foxtail ([9]; PREEMERGENCE, Rate 10 g/ha): 2 | Plant response rating, Giant foxtail ([9]; PREEMERGENCE, Rate 50 g/ha): 8 | Plant response rating Barley Igri ([10]; 62 g/ha, 0 to 100 scale): 50 | Plant response rating (0 to 100), Barley Igri ([10]; Rate 1 g/ha): 20 | Plant response rating (0 to 100), Barley Igri ([10]; Rate 4 g/ha): 30 | Plant response rating (0 to 100), Barley Igri ([10]; Rate 16 g/ha): 40 | Plant response rating, Nutsedge ([11]; POSTEMERGENCE, Rate 10 g/ha): 2 | Plant response rating, Nutsedge ([11]; POSTEMERGENCE, Rate 50 g/ha): 2 | Plant response rating, Nutsedge ([11]; PREEMERGENCE, Rate 50 g/ha): 0 | Plant response rating, Blackgrass ([12]; POSTEMERGENCE, Rate 10 g/ha): 5 | Plant response rating, Blackgrass ([12]; POSTEMERGENCE, Rate 50 g/ha): 7 | Plant response rating, Blackgrass ([12]; PREEMERGENCE, Rate 10 g/ha): 3 | Plant response rating, Blackgrass ([12]; PREEMERGENCE, Rate 50 g/ha): 7 | Plant response rating Lambsquarters ([13]; 62 g/ha, 0 to 100 scale): 100 | Plant response rating (0 to 100), Lambsquarters ([13]; Rate 1 g/ha): 100 | Plant response rating (0 to 100), Lambsquarters ([13]; Rate 4 g/ha): 100 | Plant response rating (0 to 100), Lambsquarters ([13]; Rate 16 g/ha): 100 | Plant response rating, Crabgrass ([14]; POSTEMERGENCE, Rate 10 g/ha): 2 | Plant response rating, Crabgrass ([14]; POSTEMERGENCE, Rate 50 g/ha): 3 | Plant response rating, Crabgrass ([14]; PREEMERGENCE, Rate 10 g/ha): 0 | Plant response rating, Crabgrass ([14]; PREEMERGENCE, Rate 50 g/ha): 6 | Plant response rating, Chickweed ([15]; 62 g/ha, 0 to 100 scale): 100 | Plant response rating (0 to 100), Chickweed ([15]; Rate 1 g/ha): 30 | Plant response rating (0 to 100), Chickweed ([15]; Rate 4 g/ha): 70 | Plant response rating (0 to 100), Chickweed ([15]; Rate 16 g/ha): 100 | Plant response rating, Rape ([16]; POSTEMERGENCE, Rate 10 g/ha): 10 | Plant response rating, Rape ([16]; POSTEMERGENCE, Rate 50 g/ha): 10 | Plant response rating, Rape ([16]; PREEMERGENCE, Rate 50 g/ha): 6 | Plant response rating Pigweed ([17]; 62 g/ha, 0 to 100 scale): 100 | Plant response rating (0 to 100), Pigweed ([17]; Rate 1 g/ha): 100 | Plant response rating (0 to 100), Pigweed ([17]; Rate 4 g/ha): 100 | Plant response rating (0 to 100), Pigweed ([17]; Rate 16 g/ha): 100 | Plant response rating, Barley ([18]; POSTEMERGENCE, Rate 10 g/ha): 5 | Plant response rating, Barley ([18]; POSTEMERGENCE, Rate 50 g/ha): 4 | Plant response rating, Barley ([18]; PREEMERGENCE, Rate 10 g/ha): 0 | Plant response rating, Barley ([18]; PREEMERGENCE, Rate 50 g/ha): 3
